Reference: patent US5795907A, “Gastin and CCK receptor ligands” (James Black Foundation Limited, priority 1994, dated 1998)

What was measured:
[1] = target: T1, CCKB receptor (Mus musculus, UniProt P56481); assay: CCKB receptor radioligand binding assay in mouse cortical membranes ([125I]-CCK8S); conditions: [125I]-CCK8S 200 pM, 150 min at 21±3°, read-out: CCKB pKi (converted)
T1 construct: The cortex was dissected, weighed and homogenised in 40ml ice-cold buffer; tissue Charles River (supplier of the CD1 mice); host or cells: cerebral cortex membranes of male CD1 mice
T1 sequence (P56481 1-453): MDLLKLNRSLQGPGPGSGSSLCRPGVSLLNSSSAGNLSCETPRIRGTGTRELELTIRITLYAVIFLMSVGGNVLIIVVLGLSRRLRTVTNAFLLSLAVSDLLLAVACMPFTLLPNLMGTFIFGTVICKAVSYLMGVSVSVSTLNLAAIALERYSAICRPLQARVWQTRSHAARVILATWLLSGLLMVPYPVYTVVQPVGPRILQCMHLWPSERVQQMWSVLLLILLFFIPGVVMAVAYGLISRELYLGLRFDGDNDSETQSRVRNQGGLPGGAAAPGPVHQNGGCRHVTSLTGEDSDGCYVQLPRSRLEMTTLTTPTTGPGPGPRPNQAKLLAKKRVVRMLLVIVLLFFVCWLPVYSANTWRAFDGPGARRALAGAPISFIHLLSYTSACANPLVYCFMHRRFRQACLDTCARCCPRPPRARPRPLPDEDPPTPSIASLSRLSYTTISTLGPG
Outline: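 Cortical membranes from male CD1 mice in HEPES buffer (pH 7.2; NaCl, KCl, MgCl2, EDTA, bacitracin) were incubated with competing compound and [125I]-CCK8S (added as a 200 pM solution) for 150 min at 21±3°. Non-specific binding was defined with L-365,260. Bound tracer was separated by GF/B filtration and counted by gamma counting.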

[2] = target: T2, gastrin (Rattus norvegicus, UniProt P30553); assay: gastrin antagonist activity in an immature rat stomach assay (pentagastrin-stimulated acid secretion); conditions: cumulative pentagastrin dose-response curves after 60 min with drug, read-out: Gastrin pKB (converted)
T2 construct: The stomach was lowered into a jacketed organ bath containing 40 ml of buffered solution; from tissue; host or cells: isolated perfused whole stomach of immature rats (ca. 21 days old)
T2 sequence (P30553 1-452): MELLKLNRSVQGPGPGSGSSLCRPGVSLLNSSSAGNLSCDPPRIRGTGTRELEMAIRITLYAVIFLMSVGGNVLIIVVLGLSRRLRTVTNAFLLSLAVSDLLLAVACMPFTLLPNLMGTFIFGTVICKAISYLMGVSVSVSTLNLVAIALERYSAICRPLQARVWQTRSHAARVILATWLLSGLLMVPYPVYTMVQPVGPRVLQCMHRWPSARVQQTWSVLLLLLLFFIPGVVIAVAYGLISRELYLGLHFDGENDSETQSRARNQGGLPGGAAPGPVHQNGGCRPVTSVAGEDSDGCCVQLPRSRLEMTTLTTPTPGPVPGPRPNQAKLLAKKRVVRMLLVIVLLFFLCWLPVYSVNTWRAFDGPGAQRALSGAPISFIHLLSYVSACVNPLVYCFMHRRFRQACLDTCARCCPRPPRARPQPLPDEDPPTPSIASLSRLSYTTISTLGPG
Outline: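 Isolated lumen-perfused immature rat stomach (33-50 g, ca. 21 days) in 37° organ bath with 3×10^-8 M 5-methylfurmethide; acid secretion read by pH electrode in perfusate. Compound added to serosal bath after 120 min stabilisation; cumulative pentagastrin dose-response curves begun 60 min later and analysed by the Black et al. method.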

[3] = target: T3, CCKA (Cavia porcellus, UniProt Q63931); assay: CCKA radioligand binding assay in guinea-pig pancreas membranes ([125I]-CCK8(S)); conditions: PD134,308 present, 150 minutes at 21±3°, read-out: CCKA pKi (converted)
T3 construct: The pancreatata were homogenised in 40 ml ice-cold HEPES buffer using a polytron; from tissue; host or cells: pancreas membranes of male Dunkin Hartley guinea-pigs
T3 sequence (Q63931 1-430): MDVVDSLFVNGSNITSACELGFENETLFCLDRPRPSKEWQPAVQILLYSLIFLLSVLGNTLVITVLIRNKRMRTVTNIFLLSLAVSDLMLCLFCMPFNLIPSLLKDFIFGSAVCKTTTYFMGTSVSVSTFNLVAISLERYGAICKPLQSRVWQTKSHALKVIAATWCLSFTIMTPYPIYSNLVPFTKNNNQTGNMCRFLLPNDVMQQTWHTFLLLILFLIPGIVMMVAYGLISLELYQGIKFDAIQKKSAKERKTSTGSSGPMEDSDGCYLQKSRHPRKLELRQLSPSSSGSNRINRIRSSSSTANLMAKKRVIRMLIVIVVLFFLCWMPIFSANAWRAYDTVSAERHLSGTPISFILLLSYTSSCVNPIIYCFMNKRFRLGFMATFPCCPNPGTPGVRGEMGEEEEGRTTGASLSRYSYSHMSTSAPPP
Outline: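 Male guinea-pig pancreas membranes (1 mg/ml wet tissue in HEPES pH 7.2, suspension containing 0.375 μM PD134,308) were incubated 150 min at 21±3° with [125I]-CCK8(S) ([…] added solution) and competitor. Non-specific binding used 100 nM L-364,718 (added solution). Bound radioligand was measured by GF/B filtration and gamma counting.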

Ki [1]: 15.8 nM
Kb [2]: 63.1 nM
Ki [3]: 398 nM
SMILES: O=C(NCC12CC3CC(CC(C3)C1)C2)c1cc2nc[nH]c2cc1C(=O)N[C@@H](Cc1ccccc1)C(=O)Nc1cccc(-c2nn[nH]n2)c1 [Example 83, 5-(1S-(3-tetrazolylphenylaminocarbonyl)-2-phenylethylaminocarbonyl)-6-(1-adamantanemethylaminocarbonyl)-benzimidazole]
